≈ marks a conversion by molar mass, not a printed value.
Key:
[1] = Kinetic solubility; assay type: physicochemical; details: kinetic from dmso stock
[2] = target: human type II topoisomerase (topo II); test: Topo II inhibitory activity; assay type: biochemical
[3] = tested on: DU145; test: Cell activity (cancer cell proliferation), DU145; assay type: cell-based; details: Homo sapiens, DU-145
[4] = tested on: A549; test: Cell activity (cancer cell proliferation), A549; assay type: cell-based; details: Homo sapiens
[5] = Stability in mouse plasma; assay type: in vitro ADME; details: read-out: Stability (t 1/2) Mouse plasma
[6] = tested on: HeLa; test: Cell activity (cancer cell proliferation), HeLa; assay type: cell-based; details: Homo sapiens
[7] = Thermodynamic solubility; assay type: physicochemical; details: thermodynamic from solid; Termodinamic
[8] = tested on: A375; test: Cell activity (cancer cell proliferation), A375; assay type: cell-based; details: Homo sapiens, A-375
[9] = Stability in mouse liver microsomes; assay type: in vitro ADME; details: read-out: Stability (t 1/2) Mouse liver microsomes
[10] = tested on: MCF7; test: Cell activity (cancer cell proliferation), MCF7; assay type: cell-based; details: Homo sapiens
[11] = tested on: G361; test: Cell activity (cancer cell proliferation), G361; assay type: cell-based; details: Homo sapiens, G-361

Compound	solubility kinetic [1]	IC50 [2]	IC50 [3]	IC50 [4]	half-life [5]	other results
COc1cccc(Nc2nc(-c3ccncc3)nc3c2CNCC3)c1 [Example E2.2, N-(3-methoxyphenyl)-2-(4-pyridyl)-5,6,7,8-tetrahydropyrido[4,3-d]pyrimidin-4-amine]	> 250 µM	120 ± 13 µM	25 µM	35.3 µM	> 2 h	–
N[C@H]1CCc2nc(-c3ccncc3)nc(Nc3cccc(F)c3)c2C1 (single isomer, unassigned) [Example E1.3]	> 250 µM	–	–	–	> 2 h	–
NC1CCc2nc(-c3cccnc3)nc(Nc3cccc(F)c3)c2C1 (stereo not drawn) [Example E1.10, N4-(3-fluorophenyl)-2-(3-pyridyl)-5,6,7,8-tetrahydroquinazoline-4,6-diamine]	–	–	25.4 µM	21.3 µM	> 2 h	–
COc1cccc(Nc2nc(-c3ccncc3)nc3c2CC(N)CC3)c1 (stereo not drawn) [Example E1.5, N4-(3-methoxyphenyl)-2-(4-pyridyl)-5,6,7,8-tetrahydroquinazoline-4,6-diamine]	> 250 µM	–	–	26.2 µM	> 2 h	–
CNc1cccc(Nc2nc(-c3ccncc3)nc3c2CNCC3)c1 [Example E2.4, N3-methyl-N1-[2-(4-pyridyl)-5,6,7,8-tetrahydropyrido[4,3-d]pyrimidin-4-yl]benzene-1,3-diamine]	> 250 µM	160 ± 20 µM	45 µM	61.9 µM	> 2 h	–
CN(C)c1cccc(Nc2nc(-c3ccncc3)nc3c2CNCC3)c1 [Example E2.5, N3,N3-dimethyl-N1-[2-(4-pyridyl)-5,6,7,8-tetrahydropyrido[4,3-d]pyrimidin-4-yl]benzene-1,3-diamine]	> 250 µM	140 ± 20 µM	42.5 µM	40.8 µM	> 2 h	–
NC1CCc2nc(-c3ccncc3)nc(Nc3ccc(F)cc3)c2C1 (stereo not drawn) [Example E1.8, N4-(4-fluorophenyl)-2-(4-pyridyl)-5,6,7,8-tetrahydroquinazoline-4,6-diamine]	> 250 µM	–	–	–	> 2 h	–
Cc1cccc(Nc2nc(-c3ccncc3)nc3c2CC(N)CC3)c1 (stereo not drawn) [Example E1.4, N4-(m-tolyl)-2-(4-pyridyl)-5,6,7,8-tetrahydroquinazoline-4,6-diamine]	249 µM (≈ 82.5 µg/mL)	200 ± 20 µM	12.3 µM	14.4 µM	> 2 h	–
Fc1cccc(Nc2nc(-c3ccncc3)nc3c2CNCC3)c1 [Example E2.1, N-(3-fluorophenyl)-2-(4-pyridyl)-5,6,7,8-tetrahydropyrido[4,3-d]pyrimidin-4-amine]	> 250 µM	25 ± 5 µM	32.9 µM	23.7 µM	> 2 h	IC50 [6]: 32.3 µM; solubility [7]: 96 µM (≈ 30.9 µg/mL); IC50 [8]: 29.6 µM; half-life [9]: 0.65 h; IC50 [10]: 33.4 µM; IC50 [11]: 6.1 µM
Fc1cccc(Nc2nc(-c3ccncc3)nc3ccccc23)c1 [Example E6, N-(3-fluorophenyl)-2-(4-pyridyl)quinazolin-4-amine]	–	–	–	–	–	Activity Topo II IC50 (μM) [2]: inactive
CNc1cccc(Nc2nc(-c3ccncc3)nc3c2CC(N)CC3)c1 (stereo not drawn) [Example E1.7, N4-[3-(methylamino)phenyl]-2-(4-pyridyl)-5,6,7,8-tetrahydroquinazoline-4,6-diamine]	–	> 200 µM	24.5 µM	33.4 µM	–	–
Oc1ccc(Nc2nc(-c3ccncc3)nc3c2CNCC3)cc1 [Example E2.6, 4-[[2-(4-pyridyl)-5,6,7,8-tetrahydropyrido[4,3-d]pyrimidin-4-yl]amino]phenol]	–	200 ± 15 µM	–	–	–	–
Nc1ccc2nc(-c3ccncc3)nc(Nc3cccc(F)c3)c2c1 [Example E3, N4-(3-fluorophenyl)-2-(4-pyridyl)quinazoline-4,6-diamine]	17 µM (≈ 5.63 µg/mL)	80 ± 15 µM	7.7 µM	9.2 µM	1.48 h	IC50 [6]: 4.7 µM; solubility [7]: 0.2 µM (≈ 0.0663 µg/mL); IC50 [8]: 8.3 µM; half-life [9]: 0.367 h; IC50 [10]: 8.6 µM; IC50 [11]: 10.4 µM
N[C@@H]1CCc2nc(-c3ccncc3)nc(Nc3cccc(F)c3)c2C1 (single isomer, unassigned) [Example E1.2]	> 250 µM	–	–	–	> 2 h	–
Fc1ccccc1Nc1nc(-c2ccncc2)nc2c1CNCC2 [Example E2.7, N-(2-fluorophenyl)-2-(4-pyridyl)-5,6,7,8-tetrahydropyrido[4,3-d]pyrimidin-4-amine]	> 250 µM	4.5 ± 1 µM	–	–	> 2 h	solubility [7]: 596 µM (≈ 192 µg/mL); half-life [9]: 0.5 h
NC1CCc2nc(-c3ccncc3)nc(Nc3cccc(F)c3)c2C1 (stereo not drawn) [Example E1.1, N4-(3-fluorophenyl)-2-(4-pyridyl)-5,6,7,8-tetrahydroquinazoline-4,6-diamine]	> 250 µM	–	–	–	> 2 h	half-life [9]: > 1 h
CN(C)c1ccc(Nc2nc(-c3ccncc3)nc3c2CC(N)CC3)cc1 (stereo not drawn) [Example E1.11, N4-[4-(dimethylamino)phenyl]-2-(4-pyridyl)-5,6,7,8-tetrahydroquinazoline-4,6-diamine]	> 250 µM	3.5 ± 0.5 µM	–	–	> 2 h	solubility [7]: 452 µM (≈ 163 µg/mL); half-life [9]: > 1 h
Nc1cccc(Nc2nc(-c3ccncc3)nc3c2CNCC3)c1 [Example E2.3, N1-[2-(4-pyridyl)-5,6,7,8-tetrahydropyrido[4,3-d]pyrimidin-4-yl]benzene-1,3-diamine]	> 250 µM	150 ± 18 µM	85.2 µM	513 µM	> 2 h	–
Nc1cccc(Nc2nc(-c3ccncc3)nc3c2CC(N)CC3)c1 (stereo not drawn) [Example E1.6, N4-(3-aminophenyl)-2-(4-pyridyl)-5,6,7,8-tetrahydroquinazoline-4,6-diamine]	–	> 500 µM	37.4 µM	75.9 µM	–	–
Fc1cccc(Nc2nc(-c3ccncc3)nc3ccncc23)c1 [Example E4, N-(3-fluorophenyl)-2-(4-pyridyl)pyrido[4,3-d]pyrimidin-4-amine]	–	> 200 µM	–	–	–	–
NC1CCc2nc(-c3ccncc3)nc(Nc3ccc(O)cc3)c2C1 (stereo not drawn) [Example E1.9, 4-[[6-amino-2-(4-pyridyl)-5,6,7,8-tetrahydroquinazolin-4-yl]amino]phenol]	–	> 500 µM	20.8 µM	74.5 µM	–	–

— US10889560B2, “4-amino-2-pyrido-bicyclic pyrimidines and use thereof as topoisomerase II inhibitors” (FONDAZIONE ISTITUTO ITALIANO DI TECNOLOGIA, priority 2016, dated 2021)
